Measurements: patent US20210041443A1, “WNT6 AS GLIOBLASTOMA ONCOGENIC BIOMARKER, AND USES OF INHIBITORS THEREOF” (UNIVERSIDADE DO MINHO, priority 2018, published 2021)

What was measured:
Experiment in all cases: Cell viability of GBM cells exposed to WNT974
[1] = system: U373 cells (WNT6-positive GBM); format: cell-based, human
Experimental: (§1) FIG. 13. WNT6-positive GBM cell lines are more sensitive to WNT974 (an inhibitor of the WNT pathway) than a WNT6-negative GBM cell line. A. GBM cells positive to WNT6 (U373, […], and GL42) and negative to WNT6 (U87) were exposed to increasing doses of WNT974 (0, 10, 20, or 30 μM). The viability of U87 cells (WNT6-negative) was not affected by WNT inhibition, in contrast to WNT6-positive GBM cells (U373, SNB19, and GL42) that are highly-sensitive. B. Cells were exposed to increasing doses of WNT974 (0, 10, 20, or 30 μM) and to a fixed dose of TMZ (temozolomide, the gold standard chemotherapeutic drug used for GBM patients; U373: 400 μM; SNB19: 800 μM; GL42: 200 μM; U87: 800 μM).

[2] = system: SNB19 cells (WNT6-positive GBM); format: cell-based, human
Experimental: as §1

[3] = system: U87 cells (WNT6-negative GBM); format: cell-based, human
Experimental: as §1

[4] = system: GL42 cells (WNT6-positive GBM); format: cell-based
Experimental: as §1

Cc1cc(-c2ncc(CC(=O)Nc3ccc(-c4cnccn4)cn3)cc2C)ccn1 [WNT974]
cell viability, sensitivity to WNT inhibition ([1]; U373 (WNT6-positive), WNT974 0, 10, 20, or 30 μM): highly-sensitive | cell viability, sensitivity to combinatorial therapy ([1]; U373, WNT974 0, 10, 20, or 30 μM plus fixed dose TMZ 400 μM): higher sensitivity | cell viability, sensitivity to WNT inhibition ([2]; SNB19 (WNT6-positive), WNT974 0, 10, 20, or 30 μM): highly-sensitive | cell viability, sensitivity to combinatorial therapy ([2]; SNB19, WNT974 0, 10, 20, or 30 μM plus fixed dose TMZ 800 μM): higher sensitivity | cell viability, sensitivity to WNT inhibition ([3]; U87 (WNT6-negative), WNT974 0, 10, 20, or 30 μM): not affected | cell viability, sensitivity to combinatorial therapy ([3]; U87, WNT974 0, 10, 20, or 30 μM plus fixed dose TMZ 800 μM): no effect | cell viability, sensitivity to WNT inhibition ([4]; GL42 (WNT6-positive), WNT974 0, 10, 20, or 30 μM): highly-sensitive | cell viability, sensitivity to combinatorial therapy ([4]; GL42, WNT974 0, 10, 20, or 30 μM plus fixed dose TMZ 200 μM): higher sensitivity
